Data taken from article PMC6494997, “Studies on Isoniazid Derivatives through a Medicinal Chemistry Approach for the Identification of New Inhibitors of Urease and Inflammatory Markers” (Scientific Reports, 2019).
≈ marks a conversion by molar mass, not a printed value. Read-outs that look alike come from different tables or passages of the source.

Columns and labels:
urease [1] = molecular target: T1, urease (Canavalia ensiformis, UniProt P07374); test: biochemical
Protocol: During the experiments all the compounds were evaluated at 0.5 mM each in triplicate.

in vitro = details: mouse
Protocol: (§1) In this experiment all the compounds were evaluated at 30 µM each in triplicate.

[2] = tested on: ROS from zymosan activated whole blood cells; test: Oxidative burst assay (in vitro anti-inflammatory, ROS inhibition); format: cell-based, human; details: for Anti-Inflammatory Activity IC50 ± SD: observed, ROS inhibition, zymosan activated whole blood cells, screening concentration 25 µg/mL, <50% inhibition = inactive; for IC50: Homo sapiens, Whole blood cell, read-out: Anti-Inflammatory Activity IC50 ± SD
Protocol: In this experiment all the compounds were evaluated at 25 µg/mL, each in triplicate.
All studies on human blood cells was carried out after an approval from independent ethics committee (Prof. Dr. Ghazala H. Rizwani Chair, IEC, Prof. Qamar Amin, Prof, Dr. Muddasir Uddin, Dr. Shahnaz Ghazi, Dr. SamiuzZaman, Prof. Dr. Ahsana Dar Farooq, Dr. M. Raza Shah member IEC), International Center for Chemical and Biological Sciences, University of Karachi, No: ICCBS/IEC-008-BC-2015/Protocol/1.0. Informed consents were obtained from the volunteers before drawing the blood. All the experiments were performed in accordance with relevant guidelines and regulations.

[3] = tested on: ROS from zymosan activated whole blood cells; design: method as in PMID 6178787, PMID 28202019; details: reported literature value of the standard; cited from earlier work
[4] = 3T3 cytotoxicity assay (MTT); details: mouse
Protocol: as §1

[5] = tested on: 3T3 normal (mouse fibroblast) cell line
Protocol: as §1

[6] = tested on: 3T3 normal (mouse fibroblast) cell line; test: 3T3 cytotoxicity assay (MTT); details: read-out: Cytotoxicity (3T3 Cell line) IC50 ± SD; observed; screened at 30 µM; <50% inhibition at 30 µM = inactive
Protocol: as §1

urease [7] = molecular target: T1, urease; details: reported literature value of the standard; read-out: Urease Inhibition Activity IC50 ± SEM (Reported) (converted); cited from earlier work
[8] = observed, screening concentration 0.5 mM, <50% inhibition = inactive, Insoluble = partially soluble in HPLC methanol of the protocol
[9] = observed, screening concentration 0.5 mM, <50% inhibition = inactive, Insoluble = partially soluble in HPLC methanol of the protocol, read-out: Urease Inhibition Activity IC50 ± SEM

T1 sequence (P07374 whole entry, looked up): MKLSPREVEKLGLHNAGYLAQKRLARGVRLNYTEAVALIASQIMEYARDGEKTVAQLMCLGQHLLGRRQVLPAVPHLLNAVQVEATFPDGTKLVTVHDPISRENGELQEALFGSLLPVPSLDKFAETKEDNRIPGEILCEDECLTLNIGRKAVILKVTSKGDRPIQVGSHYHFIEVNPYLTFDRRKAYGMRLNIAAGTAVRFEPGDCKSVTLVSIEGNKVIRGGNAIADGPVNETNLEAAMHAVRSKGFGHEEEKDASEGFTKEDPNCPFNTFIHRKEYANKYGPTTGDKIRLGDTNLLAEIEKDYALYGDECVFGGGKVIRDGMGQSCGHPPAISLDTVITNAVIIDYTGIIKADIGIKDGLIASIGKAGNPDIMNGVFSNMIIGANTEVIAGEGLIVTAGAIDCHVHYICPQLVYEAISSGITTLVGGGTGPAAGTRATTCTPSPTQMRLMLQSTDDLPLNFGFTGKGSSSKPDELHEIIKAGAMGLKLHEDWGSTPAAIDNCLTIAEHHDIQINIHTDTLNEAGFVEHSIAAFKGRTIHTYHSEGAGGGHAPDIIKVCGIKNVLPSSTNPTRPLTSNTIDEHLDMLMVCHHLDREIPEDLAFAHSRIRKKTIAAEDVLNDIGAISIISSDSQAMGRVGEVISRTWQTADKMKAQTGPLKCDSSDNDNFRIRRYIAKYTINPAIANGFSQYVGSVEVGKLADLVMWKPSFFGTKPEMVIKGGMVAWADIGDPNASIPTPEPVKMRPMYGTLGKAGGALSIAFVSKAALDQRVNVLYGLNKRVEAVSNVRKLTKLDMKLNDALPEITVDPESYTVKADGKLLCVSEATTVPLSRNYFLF

Structure (SMILES) | melting point [°C] | IC50 (urease [1]) [µM] | IC50 (in vitro) [µM] | Anti-Inflammatory Activity IC50 ± SD [2] | other results
O=C(NNC(=S)Nc1cc(C(F)(F)F)ccc1Cl)c1ccncc1 [Compound 8, N-(2-Chloro-5-(trifluoromethyl)phenyl)-2-isonicotinoylhydrazinecarbothioamide] | 183 to 184 | 44.4 ± 0.43 | > 30 | Inactive | 
O=C(NNC(=S)Nc1cccc(Br)c1)c1ccncc1 [Compound 22, N-(3-Bromophenyl)-2-isonicotinoylhydrazinecarbothioamide] | 192 to 193 | 22.1 ± 1.91 | > 30 |  | IC50 [2]: 25.1 ± 0.4 µg/mL (≈ 71.5 µM)
O=C(NNC(=S)Nc1cccc(I)c1)c1ccncc1 [Compound 17, N-(3-Iodophenyl)-2-isonicotinoylhydrazinecarbothioamide] | 192 to 193 | 14.7 ± 1.01 | > 30 |  | IC50 [2]: 36.9 ± 3 µg/mL (≈ 92.7 µM)
O=C(NNC(=S)Nc1ccc(Cl)cc1)c1ccncc1 [Compound 18, N-(4-Chlorophenyl)-2-isonicotinoylhydrazine carbothioamide] |  | 26.3 ± 1.59 | 29.5 ± 1.9 | Inactive | 
O=C(NNC(=S)Nc1ccc(F)cc1)c1ccncc1 [Compound 19, N-(4-Fluorophenyl)-2-isonicotinoylhydrazinecarbothioamide] | 191 to 192 | 12.7 ± 0.8 | > 30 | Inactive | 
O=C(NNC(=S)NC1CCCC1)c1ccncc1 [Compound 13, N-Cyclopentyl-2-isonicotinoylhydrazinecarbothioamide] | 223 to 224 | 13.6 ± 1.61 | > 30 | Inactive | 
CC(C)Cc1ccc(C(C)C(=O)O)cc1 (stereo not shown) [Ibuprofen, reference compound] |  |  |  |  | Anti-Inflammatory Activity IC50 ± SD (reported) [3]: 12.97 ± 0.23 µg/mL; IC50 [2]: 11.2 ± 1.9 µg/mL (≈ 54.3 µM)
NNC(=O)c1ccncc1 [Isoniazid(1), Isoniazid] |  |  |  | Inactive | Urease Inhibition Activity IC50 ± SEM (urease [1]; [8]): Inactive; IC50 [4]: 28.5 ± 1.2 µM
CCCCCCNC(=S)NNC(=O)c1ccncc1 [Compound 25, N-Hexyl-2-isonicotinoylhydrazinecarbothioamide] | 215 to 216 |  | > 30 | Inactive | Urease Inhibition Activity IC50 ± SEM (urease [1]; [8]): Insoluble
O=C(NNC(=S)Nc1ccc(F)cc1F)c1ccncc1 [Compound 15, N-(2,4-Difluorophenyl)-2-isonicotinoylhydrazinecarbothioamide] | 191 to 192 | 34.1 ± 0.45 | > 30 | Inactive | 
O=C(NNC(=S)Nc1ccccc1Br)c1ccncc1 [Compound 14, N-(2-Bromophenyl)-2-isonicotinoylhydrazinecarbothioamide] | 156 to 157 | 35.8 ± 1.89 | > 30 | Inactive | 
O=C(NNC(=S)NC1CCCCC1)c1ccncc1 [Compound 23, N-Cyclohexyl-2-isonicotinoylhydrazinecarbothioamide] | 212 to 213 | 22.4 ± 1.83 | > 30 |  | IC50 [2]: 12.3 ± 1.2 µg/mL (≈ 44.2 µM)
N#Cc1ccc(NC(=S)NNC(=O)c2ccncc2)cc1 [Compound 10, N-(4-Cyanophenyl)-2-isonicotinoylhydrazinecarbothioamide] | 162 to 163 | 15.7 ± 1.32 | > 30 | Inactive | 
O=C(NNC(=S)Nc1c(F)c(F)c(F)c(F)c1F)c1ccncc1 [Compound 12, 2-Isonicotinoyl-N-(perfluorophenyl) hydrazinecarbothioamide] |  |  |  | 27.7 ± 2.4 µg/mL | IC50 (urease [1]; [9]): 12.3 ± 1.04 µM; IC50 [5]: > 30 µM
O=C(NNC(=S)Nc1cc(Cl)ccc1Cl)c1ccncc1 [Compound 5, N-(2,5-Dichlorophenyl)-2-isonicotinoylhydrazinecarbothioamide] | 172 to 173 | 36.5 ± 0.14 | > 30 |  | IC50 [2]: 18.5 ± 1 µg/mL (≈ 54.2 µM)
O=C(NNC(=S)Nc1c(Cl)cccc1Cl)c1ccncc1 [Compound 6, N-(2,6-Dichlorophenyl)-2-isonicotinoylhydrazinecarbothioamide] | 127 to 128 |  | > 30 | Inactive | Urease Inhibition Activity IC50 ± SEM (urease [1]; [8]): Insoluble
O=C(NNC(=S)Nc1ccccc1F)c1ccncc1 [Compound 3, N-(2-Fluorophenyl)-2-isonicotinoylhydrazinecarbothioamide] | 241 to 242 |  | > 30 | Inactive | Urease Inhibition Activity IC50 ± SEM (urease [1]; [8]): Inactive^c
O=C(NNC(=S)Nc1cccc([N+](=O)[O-])c1)c1ccncc1 [Compound 27, 2-Isonicotinoyl-N-(3-nitrophenyl) hydrazinecarbothioamide] |  |  |  | Inactive | Urease Inhibition Activity IC50 ± SEM (urease [1]; [8]): Insoluble^d; IC50 [5]: > 30 µM
O=C(NNC(=S)Nc1cccc(F)c1)c1ccncc1 [Compound 16, N-(3-Fluorophenyl)-2-isonicotinoylhydrazinecarbothioamide] | 174 to 175 | 21.5 ± 1.3 | > 30 |  | IC50 [2]: 29.7 ± 1.7 µg/mL (≈ 102 µM)
COc1ccc(NC(=S)NNC(=O)c2ccncc2)cc1 [Compound 20, 2-Isonicotinoyl-N-(4-methoxyphenyl) hydrazinecarbothioamide] |  |  |  | Inactive | IC50 (urease [1]; [9]): 22 ± 1.15 µM; IC50 [5]: > 30 µM
O=C(NNC(=S)Nc1ccc(OC(F)(F)F)cc1)c1ccncc1 [Compound 11, 2-Isonicotinoyl-N-(4-(trifluoromethoxy)phenyl) hydrazine carbothioamide] |  |  |  | Inactive | IC50 (urease [1]; [9]): 13.2 ± 1.64 µM; IC50 [6]: > 30 µM
O=C(NNC(=S)Nc1cccc(Cl)c1Cl)c1ccncc1 [Compound 4, N-(2,3-Dichlorophenyl)-2-isonicotinoylhydrazinecarbothioamide] | 198 to 199 | 38.8 ± 0.35 | > 30 | Inactive | 
CC(=O)NO [Aetohydaoxamic acid, acetohydroxamic acid, reference compound] |  |  |  |  | IC50 (urease [1]; [9]): 20.3 ± 0.4 µM; IC50 (urease [7]): 17.2 µM
O=C(NNC(=S)Nc1c(F)cccc1F)c1ccncc1 [Compound 7, N-(2,6-Difluorophenyl)-2-isonicotinoylhydrazinecarbothioamide] | 248 to 249 | 46.3 ± 0.43 | > 30 | Inactive | 
O=C(NNC(=S)Nc1ccccc1)c1ccncc1 [Compound 24, 2-Isonicotinoyl-N-phenylhydrazinecarbothioamide] |  | 63.2 ± 2 | > 30 | Inactive | 
O=C(NNC(=S)Nc1cc(Cl)c(Cl)cc1Cl)c1ccncc1 [Compound 21, Isonicotinoyl-N-(2,4,5-trichlorophenyl) hydrazinecarbothioamide] |  |  |  | Inactive | IC50 (urease [1]; [9]): 28.2 ± 1.48 µM; IC50 [5]: > 30 µM
O=C(NNC(=S)Nc1cccc(N=C=S)c1)c1ccncc1 [Compound 26] | 195 to 196 |  |  |  | 
O=C(NNC(=S)Nc1ccc(Cl)c(C(F)(F)F)c1)c1ccncc1 [Compound 9, N-(4-Chloro-3-(trifluoromethyl)phenyl)-2 isonicotinoylhydrazinecarbothioamide] | 231 to 232 | 14.2 ± 1.38 | > 30 |  | IC50 [2]: 26.7 ± 2.5 µg/mL (≈ 71.2 µM)
